Active and inactive are the calls of the source. How the calls were made is not given here.
Tested on: CCRIS mutagenicity, Ames/micronucleus/aberration tests
Assay: CCRIS mutagenicity studies
[1] = Test System: AMES SALMONELLA TYPHIMURIUM, Strain/Indicator: TA98, Metabolic Activation: NONE, Method: STANDARD PLATE
[2] = Test System: AMES SALMONELLA TYPHIMURIUM, Strain/Indicator: TA100, Metabolic Activation: NONE, Method: STANDARD PLATE
[3] = Test System: AMES SALMONELLA TYPHIMURIUM, Strain/Indicator: TA98, Metabolic Activation: NONE, Method: PREINCUBATION
[4] = Test System: AMES SALMONELLA TYPHIMURIUM, Strain/Indicator: TA100, Metabolic Activation: NONE, Method: PREINCUBATION
[5] = Test System: AMES SALMONELLA TYPHIMURIUM, Strain/Indicator: TA1535, Metabolic Activation: NONE, Method: PREINCUBATION
[6] = Test System: AMES SALMONELLA TYPHIMURIUM, Strain/Indicator: TA1537, Metabolic Activation: NONE, Method: PREINCUBATION

Measured: mutagenic call

CCc1ccc(NC(=O)c2csc([N+](=O)[O-])c2)cc1
active: [1] active; positive | [2] active; positive

Nc1ccc(-c2ccc(N)c(Cl)c2)cc1Cl
inactive: [4] inactive; negative | [2] inactive; negative | Test System: AMES SALMONELLA TYPHIMURIUM, Strain/Indicator: TA1535, Metabolic Activation: HAMSTER, LIVER, S-9, AROCLOR 1254, Method: PREINCUBATION inactive; negative | [5] inactive; negative | Test System: AMES SALMONELLA TYPHIMURIUM, Strain/Indicator: TA1535, Metabolic Activation: RAT, LIVER, S-9, AROCLOR 1254, Method: PREINCUBATION inactive; negative | [6] inactive; negative
active: Test System: AMES SALMONELLA TYPHIMURIUM, Strain/Indicator: TA98(1,8-DNP6), Metabolic Activation: NONE, Method: STANDARD PLATE active; positive | Test System: AMES SALMONELLA TYPHIMURIUM, Strain/Indicator: TA98(1,8-DNP6), Metabolic Activation: S-9, Method: STANDARD PLATE active; positive | Test System: AMES SALMONELLA TYPHIMURIUM, Strain/Indicator: TA98/1,8-DNP6, Metabolic Activation: HAMSTER, LIVER, S-9, Method: PREINCUBATION active; positive | Test System: AMES SALMONELLA TYPHIMURIUM, Strain/Indicator: TA98/1,8-DNP6, Metabolic Activation: NONE, Method: PREINCUBATION active; positive | Test System: AMES SALMONELLA TYPHIMURIUM, Strain/Indicator: TA98, Metabolic Activation: HAMSTER, LIVER, S-9, AROCLOR 1254, Method: PREINCUBATION active; positive | Test System: AMES SALMONELLA TYPHIMURIUM, Strain/Indicator: TA98, Metabolic Activation: HAMSTER, LIVER, S-9, Method: PREINCUBATION active; positive | Test System: AMES SALMONELLA TYPHIMURIUM, Strain/Indicator: TA98, Metabolic Activation: MOUSE, LIVER, S-9, Method: STANDARD PLATE active; positive | [3] active; positive | [1] active; positive | Test System: AMES SALMONELLA TYPHIMURIUM, Strain/Indicator: TA98, Metabolic Activation: RAT LIVER S-9, AROCLOR 1254, Method: PREINCUBATION active; positive | Test System: AMES SALMONELLA TYPHIMURIUM, Strain/Indicator: TA98, Metabolic Activation: RAT, LIVER, S-9, AROCLOR 1254, Method: PREINCUBATION active; positive | Test System: AMES SALMONELLA TYPHIMURIUM, Strain/Indicator: TA98, Metabolic Activation: RAT, LIVER, S-9, AROCLOR 1254, Method: STANDARD PLATE active; positive | Test System: AMES SALMONELLA TYPHIMURIUM, Strain/Indicator: TA98, Metabolic Activation: S-9, Method: STANDARD PLATE active; positive | Test System: AMES SALMONELLA TYPHIMURIUM, Strain/Indicator: TA100, Metabolic Activation: HAMSTER, LIVER, S-9, AROCLOR 1254, Method: PREINCUBATION active; positive | Test System: AMES SALMONELLA TYPHIMURIUM, Strain/Indicator: TA100, Metabolic Activation: RAT LIVER S-9, AROCLOR 1254, Method: PREINCUBATION active; positive | Test System: AMES SALMONELLA TYPHIMURIUM, Strain/Indicator: TA100, Metabolic Activation: RAT, LIVER, S-9, AROCLOR 1254, Method: PREINCUBATION active; positive | Test System: AMES SALMONELLA TYPHIMURIUM, Strain/Indicator: TA100, Metabolic Activation: RAT, LIVER, S-9, AROCLOR 1254, Method: STANDARD PLATE active; positive | Test System: AMES SALMONELLA TYPHIMURIUM, Strain/Indicator: TA100, Metabolic Activation: S-9, Method: STANDARD PLATE active; positive | Test System: AMES SALMONELLA TYPHIMURIUM, Strain/Indicator: TA1535, Metabolic Activation: RAT, LIVER, S-9, AROCLOR 1254, Method: STANDARD PLATE active; positive | Test System: AMES SALMONELLA TYPHIMURIUM, Strain/Indicator: TA1537, Metabolic Activation: HAMSTER, LIVER, S-9, AROCLOR 1254, Method: PREINCUBATION active; positive | Test System: AMES SALMONELLA TYPHIMURIUM, Strain/Indicator: TA1537, Metabolic Activation: RAT, LIVER, S-9, AROCLOR 1254, Method: PREINCUBATION active; positive | Test System: AMES SALMONELLA TYPHIMURIUM, Strain/Indicator: TA1537, Metabolic Activation: RAT, LIVER, S-9, PHENOBARBITAL, Method: STANDARD PLATE active; positive | Test System: AMES SALMONELLA TYPHIMURIUM, Strain/Indicator: TA1538, Metabolic Activation: HAMSTER, LIVER, S-9, Method: STANDARD PLATE active; positive | Test System: AMES SALMONELLA TYPHIMURIUM, Strain/Indicator: TA1538, Metabolic Activation: NONE, Method: STANDARD PLATE active; positive | Test System: AMES SALMONELLA TYPHIMURIUM, Strain/Indicator: TA1538, Metabolic Activation: RAT, LIVER, S-9, AROCLOR 1254, Method: STANDARD PLATE active; positive | Test System: AMES SALMONELLA TYPHIMURIUM, Strain/Indicator: TA1538, Metabolic Activation: RAT, LIVER, S-9, PHENOBARBITAL, Method: STANDARD PLATE active; positive | Test System: Ames Salmonella typhimurium, Strain/Indicator: TA102, Metabolic Activation: None, Method: Preincubation active; positive | Test System: Ames Salmonella typhimurium, Strain/Indicator: TA102, Metabolic Activation: Rat, liver, S-9, Aroclor 1254, 4%, Method: Preincubation active; positive | Test System: UDS HUMAN FIBROBLASTS, Strain/Indicator: THY INCORP (NON-S-PHASE), Metabolic Activation: NONE, Method: LIQUID SCINTILLATION COUNTING active; positive

CC(C)(C)N
inactive: Test System: AMES SALMONELLA TYPHIMURIUM, Strain/Indicator: TA98, Metabolic Activation: HAMSTER, LIVER, S-9, AROCLOR 1254 (10%), Method: PREINCUBATION inactive; negative | [3] inactive; negative | Test System: AMES SALMONELLA TYPHIMURIUM, Strain/Indicator: TA98, Metabolic Activation: RAT LIVER S-9, PHENOBARBITAL AND BETA-NAPHTHOFLAVONE, Method: PREINCUBATION inactive; negative | Test System: AMES SALMONELLA TYPHIMURIUM, Strain/Indicator: TA98, Metabolic Activation: RAT, LIVER, S-9, AROCLOR 1254 (10%), Method: PREINCUBATION inactive; negative | Test System: AMES SALMONELLA TYPHIMURIUM, Strain/Indicator: TA100, Metabolic Activation: HAMSTER, LIVER, S-9, AROCLOR 1254 (10%), Method: PREINCUBATION inactive; negative | [4] inactive; negative | Test System: AMES SALMONELLA TYPHIMURIUM, Strain/Indicator: TA100, Metabolic Activation: RAT LIVER S-9, PHENOBARBITAL AND BETA-NAPHTHOFLAVONE, Method: PREINCUBATION inactive; negative | Test System: AMES SALMONELLA TYPHIMURIUM, Strain/Indicator: TA100, Metabolic Activation: RAT, LIVER, S-9, AROCLOR 1254 (10%), Method: PREINCUBATION inactive; negative | Test System: AMES SALMONELLA TYPHIMURIUM, Strain/Indicator: TA1535, Metabolic Activation: HAMSTER, LIVER, S-9, AROCLOR 1254 (10%), Method: PREINCUBATION inactive; negative | [5] inactive; negative | Test System: AMES SALMONELLA TYPHIMURIUM, Strain/Indicator: TA1535, Metabolic Activation: RAT LIVER S-9, PHENOBARBITAL AND BETA-NAPHTHOFLAVONE, Method: PREINCUBATION inactive; negative | Test System: AMES SALMONELLA TYPHIMURIUM, Strain/Indicator: TA1535, Metabolic Activation: RAT, LIVER, S-9, AROCLOR 1254 (10%), Method: PREINCUBATION inactive; negative | Test System: AMES SALMONELLA TYPHIMURIUM, Strain/Indicator: TA1537, Metabolic Activation: HAMSTER, LIVER, S-9, AROCLOR 1254 (10%), Method: PREINCUBATION inactive; negative | [6] inactive; negative | Test System: AMES SALMONELLA TYPHIMURIUM, Strain/Indicator: TA1537, Metabolic Activation: RAT LIVER S-9, PHENOBARBITAL AND BETA-NAPHTHOFLAVONE, Method: PREINCUBATION inactive; negative | Test System: AMES SALMONELLA TYPHIMURIUM, Strain/Indicator: TA1537, Metabolic Activation: RAT, LIVER, S-9, AROCLOR 1254 (10%), Method: PREINCUBATION inactive; negative | Test System: E.COLI, Strain/Indicator: WP2UVRA/PKM101, Metabolic Activation: NONE, Method: PREINCUBATION inactive; negative | Test System: E.COLI, Strain/Indicator: WP2UVRA/PKM101, Metabolic Activation: RAT LIVER S-9, PHENOBARBITAL AND BETA-NAPHTHOFLAVONE, Method: PREINCUBATION inactive; negative
